# From patent US20240150333A1, “TAF1 INHIBITORS” (H. LEE MOFFITT CANCER CENTER AND RESEARCH INSTITUTE, INC., priority 2020, published 2024)
# Legend:
# ATAD2A = molecular target: T1, ATAD2A (Homo sapiens, UniProt Q6PL18); test: Bromoscan selectivity profiling (DiscoveRx); assay type: binding; conditions: at 20,000 nM
# T1 construct: 32 bromodomains (by DiscoveRx); purchased DiscoveRx (BromoScan service)
# Description: (§1) qPCR-based BRD binding assay. Another method for the determination of dissociation constants of BRD-ligand complexes is offered by DiscoveRx Corp. The assay is based on competition between test compound and immobilized high-affinity ligand for binding to the KAc site of BRDs. The amount of TAF1 remaining on an immobilized high-affinity ligand in the presence of ligand is measured using a quantitative real-time polymerase chain reaction (qPCR) method that detects the associated DNA label tagged to the BRD.
# (§2) Inhibitor selectivity assays To assess target selectivity, compounds with highest biochemical and cellular activities can be profiled against panels of BRDs and kinases using the services of DiscoveRx and/or Reaction biology, as we have done previously.
# BRD9 = molecular target: T2, BRD9 (Homo sapiens, UniProt Q9H8M2); test: Bromoscan selectivity profiling (DiscoveRx); assay type: binding; conditions: at 20,000 nM
# T2 construct: purchased DiscoveRx
# T2 sequence (Q9H8M2 136-240 limits assumed): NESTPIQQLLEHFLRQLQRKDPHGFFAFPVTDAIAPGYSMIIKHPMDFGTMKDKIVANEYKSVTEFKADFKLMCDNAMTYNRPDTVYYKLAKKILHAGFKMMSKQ
# Description: as §1, §2
# BRD7 = molecular target: T3, BRD7 (Homo sapiens, UniProt Q9NPI1); test: Bromoscan selectivity profiling (DiscoveRx); assay type: binding; conditions: at 20,000 nM
# T3 construct: purchased DiscoveRx
# T3 sequence (Q9NPI1 131-235 limits assumed): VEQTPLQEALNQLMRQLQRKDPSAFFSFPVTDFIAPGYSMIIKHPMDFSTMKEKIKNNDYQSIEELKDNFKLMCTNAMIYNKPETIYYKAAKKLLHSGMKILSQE
# Description: as §1, §2
# PBRM1(2) = molecular target: T4, PBRM1(2) (Homo sapiens, UniProt Q86U86); test: Bromoscan selectivity profiling (DiscoveRx); assay type: binding; conditions: at 20,000 nM
# T4 construct: PBRM1(2); purchased DiscoveRx
# T4 sequence (Q86U86 177-287 limits assumed): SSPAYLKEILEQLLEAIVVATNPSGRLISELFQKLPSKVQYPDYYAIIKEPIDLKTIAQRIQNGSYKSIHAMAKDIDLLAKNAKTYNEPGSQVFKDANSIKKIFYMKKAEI
# Description: as §1, §2
# BRD4(2) = molecular target: T5, BRD4(2) (Homo sapiens, UniProt O60885); test: Bromoscan selectivity profiling (DiscoveRx); assay type: binding; conditions: at 20,000 nM
# T5 construct: purchased DiscoveRx
# Description: as §1, §2
# BRD2(1) = molecular target: T6, BRD2(1) (Homo sapiens, UniProt P25440); test: Bromoscan selectivity profiling (DiscoveRx); assay type: binding; conditions: at 20,000 nM
# T6 construct: 32 bromodomains (by DiscoveRx); purchased DiscoveRx (BromoScan service)
# T6 sequence (P25440 74-180 limits assumed): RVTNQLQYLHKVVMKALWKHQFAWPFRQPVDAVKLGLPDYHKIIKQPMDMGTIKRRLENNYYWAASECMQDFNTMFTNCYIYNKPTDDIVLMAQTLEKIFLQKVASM
# Description: as §1, §2
# FALZ = molecular target: T7, FALZ (Homo sapiens, UniProt Q12830); test: Bromoscan selectivity profiling (DiscoveRx); assay type: binding; conditions: at 20,000 nM
# T7 construct: purchased DiscoveRx
# Description: as §1, §2
# PBRM1(5) = molecular target: T8, PBRM1(5) (Homo sapiens, UniProt Q86U86); test: Bromoscan selectivity profiling (DiscoveRx); assay type: binding; conditions: at 20,000 nM
# T8 construct: PBRM1(5); purchased DiscoveRx
# T8 sequence (Q86U86 653-763 limits assumed): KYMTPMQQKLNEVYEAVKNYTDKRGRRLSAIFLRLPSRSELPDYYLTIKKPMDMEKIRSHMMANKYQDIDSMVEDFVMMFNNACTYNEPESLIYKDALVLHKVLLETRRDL
# Description: as §1, §2
# BRPF2/BRD1 = molecular target: T9, BRPF2/BRD1 (Homo sapiens, UniProt O95696); test: Bromoscan selectivity profiling (DiscoveRx); assay type: binding; conditions: at 20,000 nM
# T9 construct: 32 bromodomains (by DiscoveRx); purchased DiscoveRx (BromoScan service)
# T9 sequence (O95696 562-666 limits assumed): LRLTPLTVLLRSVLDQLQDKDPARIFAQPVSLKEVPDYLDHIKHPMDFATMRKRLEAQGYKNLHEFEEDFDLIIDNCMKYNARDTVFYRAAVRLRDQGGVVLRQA
# Description: as §1, §2
# BRPF3 = molecular target: T10, BRPF3 (Homo sapiens, UniProt Q9ULD4); test: Bromoscan selectivity profiling (DiscoveRx); assay type: binding; conditions: at 20,000 nM
# T10 construct: purchased DiscoveRx
# T10 sequence (Q9ULD4 589-693 limits assumed): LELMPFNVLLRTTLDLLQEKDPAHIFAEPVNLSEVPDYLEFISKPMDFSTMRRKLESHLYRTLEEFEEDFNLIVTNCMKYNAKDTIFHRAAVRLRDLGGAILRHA
# Description: as §1, §2
# BRD4(1) = molecular target: T11, BRD4(1) (Homo sapiens, UniProt O60885); test: Bromoscan selectivity profiling (DiscoveRx); assay type: binding; conditions: at 20,000 nM
# T11 construct: 32 bromodomains (by DiscoveRx); purchased DiscoveRx (BromoScan service)
# Description: as §1, §2
# PCAF = molecular target: T12, PCAF (Homo sapiens, UniProt Q92831); test: Bromoscan selectivity profiling (DiscoveRx); assay type: binding; conditions: at 20,000 nM
# T12 construct: purchased DiscoveRx
# T12 sequence (Q92831 723-827 limits assumed): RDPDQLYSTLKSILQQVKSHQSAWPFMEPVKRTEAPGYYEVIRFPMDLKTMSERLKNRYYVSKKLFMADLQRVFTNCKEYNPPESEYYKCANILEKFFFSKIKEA
# Description: as §1, §2
# SMARCA4 = molecular target: T13, SMARCA4 (Homo sapiens, UniProt P51532); test: Bromoscan selectivity profiling (DiscoveRx); assay type: binding; conditions: at 20,000 nM
# T13 construct: purchased DiscoveRx
# T13 sequence (P51532 1453-1564 limits assumed): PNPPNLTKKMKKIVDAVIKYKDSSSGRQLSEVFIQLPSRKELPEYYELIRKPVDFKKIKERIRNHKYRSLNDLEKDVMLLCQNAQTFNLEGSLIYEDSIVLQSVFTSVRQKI
# Description: as §1, §2
# GCN5L(2) = molecular target: T14, GCN5L(2) (Homo sapiens, UniProt Q92830); test: Bromoscan selectivity profiling (DiscoveRx); assay type: binding; conditions: at 20,000 nM
# T14 construct: purchased DiscoveRx
# T14 sequence (Q92830 728-832 limits assumed): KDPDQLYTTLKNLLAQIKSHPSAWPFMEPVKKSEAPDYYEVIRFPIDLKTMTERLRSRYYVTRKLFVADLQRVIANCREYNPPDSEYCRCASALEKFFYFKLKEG
# Description: as §1, §2
# BRDT(2) = molecular target: T15, BRDT(2) (Homo sapiens, UniProt Q58F21); test: Bromoscan selectivity profiling (DiscoveRx); assay type: binding; conditions: at 20,000 nM
# T15 construct: BRDT(2); purchased DiscoveRx
# Description: as §1, §2
# EP300 = molecular target: T16, EP300 (Homo sapiens, UniProt Q09472); test: Bromoscan selectivity profiling (DiscoveRx); assay type: binding; conditions: at 20,000 nM
# T16 construct: purchased DiscoveRx
# T16 sequence (Q09472 1049-1156 limits assumed): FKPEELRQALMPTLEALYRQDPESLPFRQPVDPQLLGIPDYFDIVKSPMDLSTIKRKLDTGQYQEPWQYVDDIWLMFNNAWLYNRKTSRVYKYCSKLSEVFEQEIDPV
# Description: as §1, §2
# BAZ2A = molecular target: T17, BAZ2A (Homo sapiens, UniProt Q9UIF9); test: Bromoscan selectivity profiling (DiscoveRx); assay type: binding; conditions: at 20,000 nM
# T17 construct: 32 bromodomains (by DiscoveRx); purchased DiscoveRx (BromoScan service)
# T17 sequence (Q9UIF9 1793-1897 limits assumed): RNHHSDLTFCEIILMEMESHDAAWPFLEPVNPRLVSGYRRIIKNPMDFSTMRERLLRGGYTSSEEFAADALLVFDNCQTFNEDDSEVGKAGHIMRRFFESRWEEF
# Description: as §1, §2
# BRPF1 = molecular target: T18, BRPF1 (Homo sapiens, UniProt P55201); test: Bromoscan selectivity profiling (DiscoveRx); assay type: binding; conditions: at 20,000 nM
# T18 construct: purchased DiscoveRx
# T18 sequence (P55201 628-732 limits assumed): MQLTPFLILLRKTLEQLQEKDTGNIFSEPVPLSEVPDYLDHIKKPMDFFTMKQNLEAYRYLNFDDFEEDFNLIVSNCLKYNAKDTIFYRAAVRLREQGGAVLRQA
# Description: as §1, §2
# BRD2(2) = molecular target: T19, BRD2(2) (Homo sapiens, UniProt P25440); test: Bromoscan selectivity profiling (DiscoveRx); assay type: binding; conditions: at 20,000 nM
# T19 construct: 32 bromodomains (by DiscoveRx); purchased DiscoveRx (BromoScan service)
# T19 sequence (P25440 344-453 limits assumed): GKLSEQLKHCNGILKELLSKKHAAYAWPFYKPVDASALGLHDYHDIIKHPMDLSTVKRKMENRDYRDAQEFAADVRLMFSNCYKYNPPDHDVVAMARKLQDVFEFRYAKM
# Description: as §1, §2
# ATAD2B = molecular target: T20, ATAD2B (Homo sapiens, UniProt Q9ULI0); test: Bromoscan selectivity profiling (DiscoveRx); assay type: binding; conditions: at 20,000 nM
# T20 construct: 32 bromodomains (by DiscoveRx); purchased DiscoveRx (BromoScan service)
# T20 sequence (Q9ULI0 951-1066 limits assumed): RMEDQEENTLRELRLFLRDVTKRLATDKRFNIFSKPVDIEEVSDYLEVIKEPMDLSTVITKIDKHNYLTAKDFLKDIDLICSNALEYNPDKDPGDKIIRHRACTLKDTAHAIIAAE
# Description: as §1, §2
# TAF1L(2) = molecular target: T21, TAF1L(2) (Homo sapiens, UniProt Q8IZX4); test: Bromoscan selectivity profiling (DiscoveRx); assay type: binding; conditions: at 20,000 nM
# T21 construct: purchased DiscoveRx
# T21 sequence (Q8IZX4 1517-1626 limits assumed): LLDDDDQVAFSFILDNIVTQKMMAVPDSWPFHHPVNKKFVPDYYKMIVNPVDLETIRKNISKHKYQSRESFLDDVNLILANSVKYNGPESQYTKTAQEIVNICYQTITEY
# Description: as §1, §2
# CREBBP = molecular target: T22, CREBBP (Homo sapiens, UniProt Q92793); test: Bromoscan selectivity profiling (DiscoveRx); assay type: binding; conditions: at 20,000 nM
# T22 construct: purchased DiscoveRx
# T22 sequence (Q92793 1085-1192 limits assumed): as the sequence (Q09472 1049-1156 limits assumed) above, with S47N, I73V, Y93F, S98A counted along it
# Description: as §1, §2
# BRD3(2) = molecular target: T23, BRD3(2) (Homo sapiens, UniProt Q15059); test: Bromoscan selectivity profiling (DiscoveRx); assay type: binding; conditions: at 20,000 nM
# T23 construct: 32 bromodomains (by DiscoveRx); purchased DiscoveRx (BromoScan service)
# T23 sequence (Q15059 306-415 limits assumed): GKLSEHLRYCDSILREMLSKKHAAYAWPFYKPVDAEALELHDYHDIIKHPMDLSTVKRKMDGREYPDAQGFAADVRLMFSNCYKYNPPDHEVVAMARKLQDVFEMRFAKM
# Description: as §1, §2
# WDR9(2) = molecular target: T24, WDR9(2) (Homo sapiens, UniProt Q9NSI6); test: Bromoscan selectivity profiling (DiscoveRx); assay type: binding; conditions: at 20,000 nM
# T24 construct: purchased DiscoveRx
# T24 sequence (Q9NSI6 1313-1418 limits assumed): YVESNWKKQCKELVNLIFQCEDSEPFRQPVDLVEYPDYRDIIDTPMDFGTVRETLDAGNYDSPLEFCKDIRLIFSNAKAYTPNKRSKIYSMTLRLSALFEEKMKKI
# Description: as §1, §2
# BAZ2B = molecular target: T25, BAZ2B (Homo sapiens, UniProt Q9UIF8); test: Bromoscan selectivity profiling (DiscoveRx); assay type: binding; conditions: at 20,000 nM
# T25 construct: 32 bromodomains (by DiscoveRx); purchased DiscoveRx (BromoScan service)
# T25 sequence (Q9UIF8 2060-2164 limits assumed): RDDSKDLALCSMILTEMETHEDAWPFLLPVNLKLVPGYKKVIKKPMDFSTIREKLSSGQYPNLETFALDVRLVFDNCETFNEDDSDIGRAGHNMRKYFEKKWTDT
# Description: as §1, §2
# SMARCA2 = molecular target: T26, SMARCA2 (Homo sapiens, UniProt P51531); test: Bromoscan selectivity profiling (DiscoveRx); assay type: binding; conditions: at 20,000 nM
# T26 construct: purchased DiscoveRx
# T26 sequence (P51531 1378-1506 limits assumed): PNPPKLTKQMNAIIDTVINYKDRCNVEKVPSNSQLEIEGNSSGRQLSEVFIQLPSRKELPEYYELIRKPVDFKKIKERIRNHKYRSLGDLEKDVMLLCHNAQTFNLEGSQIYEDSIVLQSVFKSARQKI
# Description: as §1, §2
# CECR2 = molecular target: T27, CECR2 (Homo sapiens, UniProt Q9BXF3); test: Bromoscan selectivity profiling (DiscoveRx); assay type: binding; conditions: at 20,000 nM
# T27 construct: purchased DiscoveRx
# T27 sequence (Q9BXF3 434-538 limits assumed): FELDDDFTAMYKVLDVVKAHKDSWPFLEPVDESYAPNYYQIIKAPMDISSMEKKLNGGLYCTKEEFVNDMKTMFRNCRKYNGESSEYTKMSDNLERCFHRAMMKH
# Description: as §1, §2
# TAF1(2) = molecular target: T28, TAF1(2) (Homo sapiens, UniProt P21675); test: Bromoscan selectivity profiling (DiscoveRx); assay type: binding; conditions: at 20,000 nM
# T28 construct: purchased DiscoveRx
# T28 sequence (P21675 1519-1628 limits assumed): as the sequence (Q8IZX4 1517-1626 limits assumed) above, with M46V, V51M, I102V, I107L counted along it
# Description: as §1, §2
# TRIM24(PHD, Bromo.) = molecular target: T29, TRIM24(PHD, Bromo.) (Homo sapiens, UniProt O15164); test: Bromoscan selectivity profiling (DiscoveRx); assay type: binding; conditions: at 20,000 nM
# T29 construct: TRIM24(PHD, Bromo.); purchased DiscoveRx
# T29 sequence (O15164 824-1006 limits assumed): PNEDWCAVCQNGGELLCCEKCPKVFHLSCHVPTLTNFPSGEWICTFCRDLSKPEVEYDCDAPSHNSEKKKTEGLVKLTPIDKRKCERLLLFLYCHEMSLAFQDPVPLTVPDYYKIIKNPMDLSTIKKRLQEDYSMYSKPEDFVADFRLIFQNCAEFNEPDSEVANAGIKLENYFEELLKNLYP
# Description: as §1, §2
# BRD3(1) = molecular target: T30, BRD3(1) (Homo sapiens, UniProt Q15059); test: Bromoscan selectivity profiling (DiscoveRx); assay type: binding; conditions: at 20,000 nM
# T30 construct: 32 bromodomains (by DiscoveRx); purchased DiscoveRx (BromoScan service)
# T30 sequence (Q15059 34-140 limits assumed): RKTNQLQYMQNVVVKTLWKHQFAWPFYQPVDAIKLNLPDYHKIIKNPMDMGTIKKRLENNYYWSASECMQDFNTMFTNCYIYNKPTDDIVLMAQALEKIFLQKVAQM
# Description: as §1, §2
# BRDT(1) = molecular target: T31, BRDT(1) (Homo sapiens, UniProt Q58F21); test: Bromoscan selectivity profiling (DiscoveRx); assay type: binding; conditions: at 20,000 nM
# T31 construct: BRDT(1); purchased DiscoveRx
# Description: as §1, §2
# TAF1-2 (TAF1 BD2) = molecular target: T32, TAF1-2 (TAF1 BD2) (Homo sapiens, UniProt P21675); test: Differential scanning fluorimetry (DSF) thermal shift; assay type: binding
# T32 construct: BD2 (residues 1501-1635); His6 (TEV-cleavable) (cleaved yes); host or cells: E. coli BL21 (DE3)
# T32 sequence (P21675 1501-1635 isoform P21675-1): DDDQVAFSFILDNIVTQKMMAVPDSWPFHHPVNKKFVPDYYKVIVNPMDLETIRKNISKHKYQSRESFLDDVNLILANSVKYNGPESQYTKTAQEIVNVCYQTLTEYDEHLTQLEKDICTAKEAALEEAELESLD
# TRIM33(PHD, Bromo.) = test: Bromoscan selectivity profiling (DiscoveRx); assay type: binding, human; conditions: at 20,000 nM
# Description: as §1, §2
# T1 sequence (Q6PL18 980-1092 limits assumed): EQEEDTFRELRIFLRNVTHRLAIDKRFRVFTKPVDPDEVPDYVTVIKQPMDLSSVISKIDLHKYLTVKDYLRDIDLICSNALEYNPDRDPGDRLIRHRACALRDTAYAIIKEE
smiles,measurement,setting,value
C[C@@H]1COCCN1c1cc(C2([S@](C)(=N)=O)CC2)nc(-c2cc[nH]c3nccc2-3)n1 [AZD6738],inhibition at 20 µM,ATAD2A,0%
same,inhibition at 20 µM,BRD9,13%
same,inhibition at 20 µM,BRD7,14%
same,inhibition at 20 µM,PBRM1(2),5%
same,inhibition at 20 µM,BRD4(2),69%
same,inhibition at 20 µM,BRD2(1),46%
same,inhibition at 20 µM,FALZ,11%
same,inhibition at 20 µM,PBRM1(5),0%
same,inhibition at 20 µM,BRPF2/BRD1,6%
same,inhibition at 20 µM,BRPF3,20%
same,inhibition at 20 µM,BRD4(1),50%
same,inhibition at 20 µM,PCAF,18%
same,inhibition at 20 µM,SMARCA4,7%
same,inhibition at 20 µM,GCN5L(2),27%
same,inhibition at 20 µM,BRDT(2),38%
same,inhibition at 20 µM,EP300,36%
same,inhibition at 20 µM,BAZ2A,0%
same,inhibition at 20 µM,BRPF1,11%
same,inhibition at 20 µM,BRD2(2),84%
same,inhibition at 20 µM,ATAD2B,0%
same,inhibition at 20 µM,TAF1L(2),98%
same,inhibition at 20 µM,CREBBP,20%
same,inhibition at 20 µM,BRD3(2),82%
same,inhibition at 20 µM,WDR9(2),84%
same,inhibition at 20 µM,BAZ2B,0%
same,inhibition at 20 µM,SMARCA2,15%
same,inhibition at 20 µM,CECR2,92.3%
same,inhibition at 20 µM,TAF1(2),99.8%
same,inhibition at 20 µM,"TRIM24(PHD, Bromo.)",6%
same,inhibition at 20 µM,BRD3(1),60%
same,inhibition at 20 µM,BRDT(1),56%
same,"DSF (ΔTm, ° C.) TAF1-2",TAF1-2 (TAF1 BD2); Table 1 (Example 1),2.9 ± 0.2 °C
same,ΔTm at 100 µM,"TAF1-2 (TAF1 BD2); Table 2 (Example 2), 100 μM compound, standard deviation from two experiments",3.2 °C
same,"DSF (ΔTm, ° C.) TAF1-2","TAF1-2 (TAF1 BD2); Table 2 (Example 2), 100 μM compound, standard deviation from two experiments, 100 µM",3.1 ± 0.1 °C
same,"% Inhibition TRIM33(PHD, Bromo.)","TRIM33(PHD, Bromo.)",0%
